From patent US8796241B2, “Therapy of tumors and infectious agents deficient in methylthioadenosine phosphorylase” (priority 2007, dated 2014)

How the values were obtained:
[1] = tested on: MTAP(+) hematopoietic cell progenitors; assay: Assay of colony-forming cells from mouse bone marrow; format: cell-based; conditions: 5′-dAdo at doses as low as 15 μM
Description: Method: The procedure for assay of colony-forming cells from mouse bone marrow was similar to methods described in the literature (see e.g., B. A. Teicher et al, Cancer Research, 47:513-518, 1987). In brief, cells were flushed from the femurs of Swiss mice, counted, and seeded into six-well tissue culture plates with supplemented McCoy's 5A medium, 15% FBS, 10 to 20% L929-cell conditioned medium as a source of colony-stimulating activity (L929 is MTAP-negative), 0.3% agar, and penicillin/streptomycin (op. cit. B. A. Teicher et al). Cells were seeded at two different densities: 50,000 and 250,000 cells per well. Control wells contained either no drugs, or adenine at 15 or 30 μM, or 5′-deoxyadenosine (5′-dAdo) at 15, 30, or 45 μM. Treatment wells contained 6-methylpurine (MeP) at 5 or 15 μM, 5′-deoxyadenosine (5′-dAdo) at 15 or 30 μM, and adenine at 15 or 30 μM, in various combinations. After eight days of incubation at 37° C. in a humidified 5% CO2 atmosphere, wells were fixed by the addition of 1 ml of 5% glutaraldehyde. Photographs were taken of a randomly selected portion of each well, as viewed (at fixed magnification) through a Nikon inverted microscope equipped with a camera.

[2] = tested on: MTAP(+) HT29 colon carcinoma cells; assay: Coulter counts of HT29 cultures; format: cell-based, human; conditions: Example 12
Experimental: For adherent cell types, cell numbers were determined periodically by releasing cells with trypsin (dead cells that were no longer adherent were removed by two prior rinses of the culture dish) and placing a portion of the resulting cell suspension in a Coulter counter. For cell types that grow in suspension, portions of the culture were counted directly, without trypsin treatment. Coulter counts of cells from each dish were done twice, and almost all experiments were done in duplicate. In the presentation of results, raw data for Coulter counts is given in some cases, while in others, counts have been rounded off to two to three significant figures. (Background Coulter counts—i.e., counts of diluent alone—were insignificant.)
• 5′-dAdo was added to cultures of MTAP(+) HT29 colon carcinoma cells for one day. 5-fluorouracil (FU) was then added and 4 days later cultures were trypsinized, thoroughly dispersed into mostly single cells by vigorous pipetting, and counted. • Initial Coulter count at time of addition of FU: 46,000

MTAP(−) A549 cells = assay: Clonogenic assay of A549 cells; format: cell-based, human
Experimental: Cell viability of adherent cell types was measured by clonogenic assay as follows: after releasing cells with trypsin and removing a portion of the cell suspension for Coulter counting, the remainder of the cell suspension was plated in serial dilutions in growth medium, without drugs. After a period sufficient for clones to reach a size visible by eye (usually 2 to 3 weeks), clones were stained with crystal violet in a saline/methanol solution. Dishes that had fewer than 100 clones were deemed suitable for counting. From these counts and from the dilution factors, the approximate number of viable cells, in the parent treatment dishes, was calculated. […] In clonogenic assays, clone size was often variable, especially after treatment with toxic drugs. Moreover, many of the very small clones may have arisen from cells detached during the weeks of incubation. […] Cloning efficiency for healthy, growing A549 cells was about 50%; for HF cells, efficiency was quite variable, ranging from 25 to 75% (perhaps because the HF cell stock varied, from experiment to experiment, in passage number).
A549 cells were incubated for 4 days with additions shown below, and viable cells measured by clonogenic assay. (Results shown are approximate; see Methods) Cell count in dish at start: 40,000
• MTAP(−) A549 lung tumor cell cultures were treated with F-Ade, with or without MTA, 5′-dAdo, or adenine (Ade), for three days. Coulter counts of cells, and viable cells as determined by clonogenic assay, are shown below: • Initial cell number: 10,340*
• A549 cell cultures were treated with DAP, with or without 5′-dAdo or adenine, for three days. After trypsinization, one-fourth of the cell suspension was counted, and raw data is shown below, with duplicate counts for each sample. The cell suspension was also serially diluted for clonogenic assay. • Counts at start of experiment: Dish one: 36,480; 39,160; Dish two: 52,680; 51,360. • Initial viable cells by clonogenic assay: 180,000.
• Cell cultures were treated with MTX or alanosine for one day. DAP was then added and 3 days later, cells were trypsinized and serially diluted for clonogenic assay. Results are shown below: • Initial viable cells: 146,000
• A549 cells were plated, and after they had adhered to the substrate, medium was changed to methionine-free medium with 10% dialyzed serum. L-ethionine (Eth) and MTA were added, and after 4 days, cell cultures were trypsinized and serially diluted for clonogenic assay. • Initial number of viable cells: 160,000*
• A549 cultures were treated with 6-thioguanine (TG) or 2,6,diaminopurine (DAP), or both, for 3 days. • Initial viable cells: 275,000 • After 3 days: […]

For C[C@H]1O[C@@H](n2cnc3c(N)ncnc32)[C@H](O)[C@@H]1O [5′-dAdo, 5′-deoxyadenosine], the “blocking of MeP toxicity to murine hematopoietic progenitors” value [1] was “effectively blocked”, the “blocking of FU toxicity in MTAP(+) HT29 cells” value [2] was “blocked” and the “blocking of MeP toxicity in A549 cells” value (MTAP(−) A549 cells; 10 μM MeP) was “not”. For the same molecule, the “blocking of DAP toxicity in A549 cells” value (MTAP(−) A549 cells; 100 μM DAP, Example 7) was “did not block” and the “blocking of F-Ade toxicity in A549 cells” value (MTAP(−) A549 cells; 1 to 2 μM F-Ade) was “not”.
